Values joined by “and” are separate entries in the source; they are usually repeats but may differ in a detail not shown here. Equal entries are not always repeated.
Experiments:
[1] = molecular target: T1, butyrylcholinesterase (eqBChE, from equine serum) (Equus caballus, UniProt P81908); assay: biochemical; conditions: mean ± SEM of three independent experiments, duplicate samples, read-out: IC50 ± SEM BChE
T1 construct: butyrylcholinesterase (eqBChE, from equine serum); from tissue; host or cells: equine serum
Description: (§1) The AChE and BChE inhibitory activity assays were performed using a BioTek Epoch 2 microplate spectrophotometer in clear, flat-bottom 96-well plates. […] To each well, 295 µL phosphate buffer pH 8.0, 10 µL enzyme solution (AChE/BChE), and 10 µL target compound solutions were added together and allowed to stand for 4 min at room temperature. Then, 10 µL of 0.01 M solution freshly prepared Ellman’s reagent 5,5′-dithiobis(2-nitrobenzoic acid) (DTNB) was added to each well. The reaction in the wells was started by the addition of 2 µL of 0.075 M solution freshly prepared substrate (ATCh (acetylthiocholine iodide)/BTCh (S-butyrylthiocholine iodide)) solution. The solution was mixed immediately and incubated for 2:30 min for AChE or for 5 min for BChE inside the microplate reader at 26 °C. […] The IC50 values were calculated graphically by nonlinear regression analysis of inhibition curves that were obtained by plotting the logarithm of the inhibitor concentrations versus the percentage of inhibition (log(inhibitor) vs. normalised response) using GraphPad Prism 8 software (See Supplementary Information for details).

[2] = molecular target: acetylcholinesterase (eeAChE, from Electrophorus electricus) (Electrophorus electricus, UniProt O42275); assay: biochemical; conditions: for Selectivity Index (SI) (AChE): Selectivity ratio [IC50(BChE)/IC50(AChE)]; for IC50: eeAChE, mean ± SEM of three independent experiments, duplicate samples, read-out: IC50 ± SEM AChE
Description: as §1

eeAChE = eeAChE (Electrophorus electricus, UniProt O42275); assay: biochemical; format: biochemical; conditions: for Ki: from slopes of Lineweaver-Burk plots versus inhibitor concentration, substrate ATCh, read-out: Ki ± SEM eeAChE
Description: The slopes of the Lineweaver-Burk reciprocal plots against the concentrations of the compound (inhibitor) were plotted to obtain the Ki values for the prepared compounds (Table 1). The value at which the line intersects the x-axis is -Ki.
The assay was performed in triplicate using different inhibitor concentrations. […] The assay was carried out in clear, flat-bottom 96-well plates, to which 5 µL distilled water was added to all wells of columns 2–3, rows B-F. Then, 5 µL of the lowest concentration of inhibitor solution was added to the wells of columns 4–5, 5 µL of the median concentration of inhibitor solution was added to the wells of columns 6–7, and 5 µL of the highest concentration of inhibitor solution was added to the wells of columns 8–9. Next, 275 μL enzyme solution was added to the wells, and the plates were incubated for 4 min. Then, 10 μL 2.5 mM DTNB was added to the wells, followed by 10 μL of 32, 16, 8, 4, or 2 mM ATCh solutions to initiate the reactions. The plates were placed in a microplate reader for direct kinetic measurements.
The inhibition constant (Ki) for each inhibitor was calculated by averaging the ATCh hydrolysis rates from three independent experiments. Using GraphPad Prism 8 software, nonlinear regression was used to calculate the Km and Vmax values of the Michaelis-Menten kinetics by plotting [substrate] versus velocity. For the Lineweaver-Burk plots, linear regression was used to plot [1/ATCh] versus […]. Finally, the Ki values were obtained by plotting the slopes against [inhibitor] [20].

[3] = ABTS radical cation decolorisation antioxidant assay
Description: The antioxidant activity was determined using a radical cation (ABTS^.+) decolorisation assay, as described by Xiao et al.[21] with a few modifications. The assay used a BioTek Epoch 2 microplate spectrophotometer (Agilent, USA) with clear, flat-bottom 96-well plates. The 7 mmol/L ABTS^.+ stock solution was prepared by dissolving 96.02 mg ABTS in acetic acid buffer (pH 4.5) and to a final volume of 25 ml, which was kept in the dark at 0–4 °C. A 2.45 mmol/L potassium persulfate (K2S2O8) stock solution was prepared by dissolving 66.24 mg K2S2O8 in acetic acid buffer solution with pH 4.5, and then diluted to 100 ml and kept in the dark at 0–4 °C. The ABTS working solution was prepared by mixing similar quantities of 7 mmol/L ABTS and 2.45 mmol/L K2S2O8. This solution was stored in a dark cabinet for 16 h before use, when it was diluted with distilled water to obtain an absorbance of 0.70 at 734 nm. In a clear, flat-bottom 96-well plate, 200 μL of ABTS working solution and 10.0 μL sample solution at different concentrations (0.0312–0.5 mg/mL) were mixed well and incubated in the dark for 7 min before the absorbance was measured at 734 nm using a microplate reader. A blank was run for each assay, and all measurements were performed after 7 min. The ABTS scavenging capacity of inhibitors was compared with that of trolox and α-tocopherol. […]

T1 sequence (P81908 whole entry): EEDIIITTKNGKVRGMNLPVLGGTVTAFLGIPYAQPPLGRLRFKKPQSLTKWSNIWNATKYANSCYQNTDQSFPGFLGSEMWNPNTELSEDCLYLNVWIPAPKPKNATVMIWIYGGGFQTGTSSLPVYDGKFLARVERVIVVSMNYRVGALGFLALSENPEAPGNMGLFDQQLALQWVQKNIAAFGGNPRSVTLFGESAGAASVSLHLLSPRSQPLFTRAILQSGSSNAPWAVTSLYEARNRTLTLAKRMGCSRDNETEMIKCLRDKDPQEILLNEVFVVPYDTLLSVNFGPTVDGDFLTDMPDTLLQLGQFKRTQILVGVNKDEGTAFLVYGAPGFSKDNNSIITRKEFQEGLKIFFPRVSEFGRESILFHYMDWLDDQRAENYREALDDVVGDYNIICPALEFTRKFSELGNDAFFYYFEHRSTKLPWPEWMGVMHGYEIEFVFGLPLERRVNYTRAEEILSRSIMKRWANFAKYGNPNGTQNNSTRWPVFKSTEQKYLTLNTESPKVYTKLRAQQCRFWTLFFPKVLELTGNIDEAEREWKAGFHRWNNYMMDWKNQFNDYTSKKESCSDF
Chain of eeAChE (O42275 24-633): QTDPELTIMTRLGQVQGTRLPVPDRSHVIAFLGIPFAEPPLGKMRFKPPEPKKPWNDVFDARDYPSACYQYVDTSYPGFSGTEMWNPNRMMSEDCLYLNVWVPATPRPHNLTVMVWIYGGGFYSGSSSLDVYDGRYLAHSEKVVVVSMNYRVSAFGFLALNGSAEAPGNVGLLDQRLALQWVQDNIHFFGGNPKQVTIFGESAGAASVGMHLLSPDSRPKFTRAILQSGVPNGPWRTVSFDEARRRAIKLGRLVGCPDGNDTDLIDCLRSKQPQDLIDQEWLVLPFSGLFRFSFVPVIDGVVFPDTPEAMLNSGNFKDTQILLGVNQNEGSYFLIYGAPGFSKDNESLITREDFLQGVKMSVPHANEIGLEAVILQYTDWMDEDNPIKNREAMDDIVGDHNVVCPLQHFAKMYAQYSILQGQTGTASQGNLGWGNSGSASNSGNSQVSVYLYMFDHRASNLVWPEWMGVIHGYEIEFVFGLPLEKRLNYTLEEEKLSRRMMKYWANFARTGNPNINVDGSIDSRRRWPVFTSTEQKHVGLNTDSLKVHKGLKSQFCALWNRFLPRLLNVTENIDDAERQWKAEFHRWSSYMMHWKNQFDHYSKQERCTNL
Chain of acetylcholinesterase (eeAChE, from Electrophorus electricus) (O42275 24-633): as above

Row | Structure (SMILES) | IC50 [1] | Selectivity Index (SI) (AChE) [2] | IC50 [2] | Ki (eeAChE) | ABTS Inhibition % ([3]; 0.0312 mg/mL) | ABTS Inhibition % ([3]; 0.0625 mg/mL) | ABTS Inhibition % ([3]; 0.125 mg/mL) | ABTS Inhibition % ([3]; 0.25 mg/mL) | ABTS Inhibition % ([3]; 0.5 mg/mL) | Type of AChE inhibition (Lineweaver-Burk pattern) (eeAChE; slopes and intercepts increased with inhibitor concentration)
1 | O=C(/C=C/c1ccccc1)/C=C/c1cc[n+](Cc2ccc([N+](=O)[O-])cc2)cc1 [Compound 7e, 1–(4-Nitrobenzyl)-4-(1E,4E)-3-oxo-5-phenylpenta-1,4-dien-1-yl)pyridin-1-ium bromide] | 3900 ± 52 nM | 5 | 800 ± 0.12 nM |  |  |  |  |  |  | 
2 | COc1cc(/C=C/C(=O)/C=C/c2ccc[n+](Cc3ccc(C)cc3)c2)ccc1O [Compound 8i, 3-(1E,4E)-5–(4-Hydroxy-3-methoxyphenyl)-3-oxopenta-1,4-dien-1-yl)-1–(4-methylbenzyl)pyridin-1-ium bromide] | 2500 ± 100 nM | 11 | 270 ± 21 nM |  |  |  |  |  |  | 
3 | O=C(/C=C/c1ccccc1)/C=C/c1ccc[n+](Cc2ccccc2)c1 [Compound 8a, 1-Benzyl-3-(1E,4E)-3-oxo-5-phenylpenta-1,4-dien-1-yl)pyridin-1-ium bromide] |  | 14 | ≤ 56 nM and 56 nM | 102 ± 0.008 nM | 0.0 ± 0.70% | 0.3 ± 0.28% | 0.4 ± 0.36% | 1.4 ± 0.49% | 2.6 ± 0.38% | 
4 | COc1cc(/C=C/C(=O)/C=C/c2ccc[n+](Cc3ccc([N+](=O)[O-])cc3)c2)ccc1O [Compound 8j, 3-(1E,4E)-5–(4-Hydroxy-3-methoxyphenyl)-3-oxopenta-1,4-dien-1-yl)-1–(4-nitrobenzyl)pyridin-1-ium bromide] | 9800 ± 90 nM |  | 660 ± 0.21 nM |  |  |  |  |  |  | 
5 | COc1cc(/C=C/C(=O)/C=C/c2cc[n+](Cc3ccc(C)cc3)cc2)ccc1O [Compound 7i, 4-(1E,4E)-5–(4-Hydroxy-3-methoxyphenyl)-3-oxopenta-1,4-dien-1-yl)-1–(4-methylbenzyl)pyridin-1-ium bromide] |  | 3 | 220 ± 0.17 nM |  |  |  |  |  |  | 
6 | O=C(/C=C/c1ccccc1)/C=C/c1ccc[n+](Cc2ccc([N+](=O)[O-])cc2)c1 [Compound 8e, 1–(4-Nitrobenzyl)-3-(1E,4E)-3-oxo-5-phenylpenta-1,4-dien-1-yl)pyridin-1-ium bromide] | 2700 ± 63 nM | 2 |  |  |  |  |  |  |  | 
7 | COc1cc(/C=C/C(=O)/C=C/c2cc[n+](Cc3ccccc3)cc2)ccc1O [Compound 7f, 1-Benzyl-4-(1E,4E)-5–(4-hydroxy-3-methoxyphenyl)-3-oxopenta-1,4-dien-1-yl)pyridin-1-ium bromide] |  | 55 | 7.5 nM | 6 ± 0.036 nM | 5.9 ± 0.47% | 13.7 ± 0.50% | 23.7 ± 0.51% | 35.5 ± 0.93% | 55.3 ± 1.42% | 
8 | Cc1ccc(C[n+]2cccc(/C=C/C(=O)/C=C/c3ccccc3)c2)cc1 [Compound 8d, 1–(4-Methylbenzyl)-3-(1E,4E)-3-oxo-5-phenylpenta-1,4-dien-1-yl)pyridin-1-ium bromide] | 2500 ± 79 nM | 4 | 630 ± 0.2 nM |  |  |  |  |  |  | 
9 | COc1cc(/C=C/C(=O)/C=C/c2cc[n+](Cc3ccc([N+](=O)[O-])cc3)cc2)ccc1O [Compound 7j, 4-(1E,4E)-5–(4-Hydroxy-3-methoxyphenyl)-3-oxopenta-1,4-dien-1-yl)-1–(4-nitrobenzyl)pyridin-1-ium bromide] | 1400 ± 83 nM |  | 230 ± 0.19 nM |  |  |  |  |  |  | 
10 | O=C(/C=C/c1ccccc1)/C=C/c1cc[n+](Cc2ccccc2)cc1 [Compound 7a, 1-Benzyl-4-(1E,4E)-3-oxo-5-phenylpenta-1,4-dien-1-yl)pyridin-1-ium bromide] |  | 19 | 32 ± 0.22 nM | 39 ± 0.011 nM | 1.4 ± 0.56% | 1.5 ± 0.30% | 1.7 ± 0.68% | 3.5 ± 0.72% | 6.4 ± 0.47% | mixed-type inhibition
11 | O=C(/C=C/c1ccccc1)/C=C/c1ccc[n+](Cc2ccc(F)cc2)c1 [Compound 8b, 1–(4-Fluorobenzyl)-3-(1E,4E)-3-oxo-5-phenylpenta-1,4-dien-1-yl)pyridin-1-ium bromide] |  | 7 | ≤ 56 nM and 54 nM | 90 ± 0.012 nM | 0.2 ± 0.40% | 0.3 ± 0.22% | 1.0 ± 0.52% | 2.3 ± 0.64% | 5.1 ± 0.62% | 
12 | Cc1c(C)c2c(c(C)c1O)CC[C@@](C)(CCC[C@H](C)CCC[C@H](C)CCCC(C)C)O2 [α-tocopherol, reference compound] |  |  |  |  | 6.9 ± 2.3% | 15.9 ± 1.0% | 29.7 ± 1.3% | 56.4 ± 0.72% | 90.2 ± 0.04% | 
13 | COc1cc(/C=C/C(=O)/C=C/c2ccc[n+](Cc3ccc(Br)cc3)c2)ccc1O [Compound 8h, 1–(4-Bromobenzyl)-3-(1E,4E)-5–(4-hydroxy-3-methoxyphenyl)-3-oxopenta-1,4-dien-1-yl)pyridin-1-ium bromide] | 1800 ± 121 nM | 3 | 630 ± 0.22 nM |  |  |  |  |  |  | 
14 | O=C(/C=C/c1ccccc1)/C=C/c1ccc[n+](Cc2ccc(Br)cc2)c1 [Compound 8c, 1–(4-Bromobenzyl)-3-(1E,4E)-3-oxo-5-phenylpenta-1,4-dien-1-yl)pyridin-1-ium bromide] |  | 1 | 1160 ± 0.17 nM |  |  |  |  |  |  | 
15 | COc1cc(/C=C/C(=O)/C=C/c2cc[n+](Cc3ccc(Br)cc3)cc2)ccc1O [Compound 7h, 1–(4-Bromobenzyl)-4-(1E,4E)-5–(4-hydroxy-3-methoxyphenyl)-3-oxopenta-1,4-dien-1-yl)pyridin-1-ium bromide] | 6360 ± 106 nM | 10 | 710 ± 0.16 nM |  |  |  |  |  |  | 
16 | O=C(/C=C/c1ccccc1)/C=C/c1cc[n+](Cc2ccc(Br)cc2)cc1 [Compound 7c, 1–(4-Bromobenzyl)-4-(1E,4E)-3-oxo-5-phenylpenta-1,4-dien-1-yl)pyridin-1-ium bromide] |  | 3 | 280 ± 0.2 nM |  |  |  |  |  |  | 
17 | Cc1ccc(C[n+]2ccc(/C=C/C(=O)/C=C/c3ccccc3)cc2)cc1 [Compound 7d, 1–(4-Methylbenzyl)-4-(1E,4E)-3-oxo-5-phenylpenta-1,4-dien-1-yl)pyridin-1-ium bromide] | 4500 ± 73 nM | 4 | 1120 ± 0.14 nM |  |  |  |  |  |  | 
18 | Cc1c(C)c2c(c(C)c1O)CCC(C)(C(=O)O)O2 (stereo not shown) [Trolox, reference compound] |  |  |  |  | 9.3 ± 1.2% | 24.7 ± 1.2% | 51.0 ± 2.3% | 91.5 ± 1.8% | 93.9 ± 0.1% | 

— paper PMC11003481, “Synthesis, biological evaluation, and computational studies of N-benzyl pyridinium–curcumin derivatives as potent AChE inhibitors with antioxidant activity” (Journal of Enzyme Inhibition and Medicinal Chemistry, 2023)
